Laboratory results from patent US20240016884A1, “WS635 USES THEREOF IN MEDICINE” (WATERSTONE PHARMACEUTICALS (WUHAN) CO., LTD., priority 2021, published 2024).

Tests used:
[1] = system: anesthesia/surgery-induced delirium-like behavior in mice; assay: Buried Food Test after anesthesia/surgery; type: in vivo
Description: (§1) Mice Anesthesia and Surgery. 18-month-old C57BL/J6 female mice were adaptive in lab for 3 days. The mice were randomly assigned to the anesthesia/surgery group or control group by weight. […] Specifically, we anesthetized each of the mice using 1.4% isoflurane in 100% oxygen in a transparent acrylic chamber. Fifteen minutes after the induction, we moved the mouse out of the chamber. Isoflurane anesthesia was maintained via a cone device, and one 16-gauge needle was inserted into the cone near the nose of the mouse to monitor the concentration of isoflurane. We made a longitudinal midline incision from the xiphoid to the 0.5 centimeter proximal pubic symphysis on the skin, abdominal muscles and peritoneum. We then sutured the incision layer by layer with 5-0 Vicryl thread.
(§2) WS635 Treatment. WS635 was dissolved in corn oil with 10% DMSO, each of the mice will be injected with WS635 solution in the dose of 40 mg/kg for 0.2 ml through IP at 30 minutes before control condition or anesthesia/surgery by using 27G×½ needles. The mice in control group received 0.2 ml of corn oil with 10% DMSO.
(§3) Behaviors Tests. […] We will perform the behavior tests in groups of 3 mice and finished them within 50 minutes, which mimics the certain features of clinical evaluation of delirium in patients.
Buried Food Test. Specifically, two days before the test, we will give each mouse 2 pieces of the sweetened cereal. […]

[2] = system: anesthesia/surgery-induced delirium-like behavior in mice; assay: Y Maze Test after anesthesia/surgery; type: in vivo; conditions: 40 mg/kg IP 30 minutes before anesthesia/surgery
Description: as §1, §2, §3
Y Maze Test. Specifically, the Y maze, made of gray polyvinylene, will be placed in a quiet and illuminated room. […]

[3] = system: anesthesia/surgery-induced delirium-like behavior in mice; assay: Open Field Test after anesthesia/surgery; type: in vivo; conditions: 40 mg/kg IP 30 minutes before anesthesia/surgery
Description: as §1, §2, §3
Open Field Test. Specifically, the mouse will be gently placed in the center of an open field chamber (40×40×40 centimeters) under dim light and will be allowed to move freely for 5 minutes. The movement parameters of the mouse will be monitored and analyzed via a video camera connected to the Any-Maze animal tracking system software (Stoelting Co., Wood Dale, IL). The total distance moved (meters), the time (seconds) spent in the center of the open field, the freezing time (seconds) and the latency (the time in seconds for the mice to reach to the location at the first attempt) to the center of the open field will be recorded and analyzed. The floor of the open field will be cleaned with 70% ethanol solution between each test. […]

[4] = system: anesthesia/surgery-induced delirium-like behavior in mice; assay: delirium-like behaviors overall (composite Z score) after anesthesia/surgery; type: in vivo
Description: as §1, §2
Behaviors Tests. […] We will perform the behavior tests in groups of 3 mice and finished them within 50 minutes, which mimics the certain features of clinical evaluation of delirium in patients. […]

[5] = system: anesthesia/surgery-induced cognitive impairment in mice; assay: anesthesia/surgery-induced cognitive impairment in mice; type: in vivo; conditions: 1.4% isoflurane and abdominal surgery
Description: as §1
Mice Anesthesia for isoflurane-induced cognitive impairment experiment. 8 month-old C57BL/6J mice. Anesthesia: 1.4% isoflurane for two hours.
WS635 Treatment for isoflurane-induced cognitive impairment experiment. WS635 was dissolved in 10% DMSO plus corn oil. Each mouse received 26.4 mg/kg WS635 or same volume of vehicle (10% DMSO plus corn oil) at 30 minutes before the anesthesia. Then, the mice were tested in Fear Conditioning System at 48 hours and 7 days after the anesthesia.
WS635 Treatment. […]

[6] = system: hepatitis C virus (HCV) replication; conditions: in vitro; cited from earlier work
cyclophilin A = cyclophilin A (Homo sapiens, UniProt P62937); conditions: cited from earlier work
calcineurin = conditions: at concentrations up to 2 μM; cited from earlier work
cytochrome P450 1A2 = conditions: metabolic studies; cited from earlier work
cytochrome P450 2B6 = conditions: metabolic studies; cited from earlier work
cytochrome P450 3A4 = conditions: metabolic studies; cited from earlier work
P-glycoprotein = P-glycoprotein (Homo sapiens, UniProt P08183); conditions: cited from earlier work
stimulated Jurkat cells = conditions: compared with cyclosporine; cited from earlier work
[7] = system: stimulated human peripheral blood mononuclear cells; conditions: compared with cyclosporine; cited from earlier work
hepatitis C virus (HCV) = conditions: two-drug combination, in vitro; cited from earlier work
[8] = cited from earlier work

P-glycoprotein, sequence (P08183 whole entry): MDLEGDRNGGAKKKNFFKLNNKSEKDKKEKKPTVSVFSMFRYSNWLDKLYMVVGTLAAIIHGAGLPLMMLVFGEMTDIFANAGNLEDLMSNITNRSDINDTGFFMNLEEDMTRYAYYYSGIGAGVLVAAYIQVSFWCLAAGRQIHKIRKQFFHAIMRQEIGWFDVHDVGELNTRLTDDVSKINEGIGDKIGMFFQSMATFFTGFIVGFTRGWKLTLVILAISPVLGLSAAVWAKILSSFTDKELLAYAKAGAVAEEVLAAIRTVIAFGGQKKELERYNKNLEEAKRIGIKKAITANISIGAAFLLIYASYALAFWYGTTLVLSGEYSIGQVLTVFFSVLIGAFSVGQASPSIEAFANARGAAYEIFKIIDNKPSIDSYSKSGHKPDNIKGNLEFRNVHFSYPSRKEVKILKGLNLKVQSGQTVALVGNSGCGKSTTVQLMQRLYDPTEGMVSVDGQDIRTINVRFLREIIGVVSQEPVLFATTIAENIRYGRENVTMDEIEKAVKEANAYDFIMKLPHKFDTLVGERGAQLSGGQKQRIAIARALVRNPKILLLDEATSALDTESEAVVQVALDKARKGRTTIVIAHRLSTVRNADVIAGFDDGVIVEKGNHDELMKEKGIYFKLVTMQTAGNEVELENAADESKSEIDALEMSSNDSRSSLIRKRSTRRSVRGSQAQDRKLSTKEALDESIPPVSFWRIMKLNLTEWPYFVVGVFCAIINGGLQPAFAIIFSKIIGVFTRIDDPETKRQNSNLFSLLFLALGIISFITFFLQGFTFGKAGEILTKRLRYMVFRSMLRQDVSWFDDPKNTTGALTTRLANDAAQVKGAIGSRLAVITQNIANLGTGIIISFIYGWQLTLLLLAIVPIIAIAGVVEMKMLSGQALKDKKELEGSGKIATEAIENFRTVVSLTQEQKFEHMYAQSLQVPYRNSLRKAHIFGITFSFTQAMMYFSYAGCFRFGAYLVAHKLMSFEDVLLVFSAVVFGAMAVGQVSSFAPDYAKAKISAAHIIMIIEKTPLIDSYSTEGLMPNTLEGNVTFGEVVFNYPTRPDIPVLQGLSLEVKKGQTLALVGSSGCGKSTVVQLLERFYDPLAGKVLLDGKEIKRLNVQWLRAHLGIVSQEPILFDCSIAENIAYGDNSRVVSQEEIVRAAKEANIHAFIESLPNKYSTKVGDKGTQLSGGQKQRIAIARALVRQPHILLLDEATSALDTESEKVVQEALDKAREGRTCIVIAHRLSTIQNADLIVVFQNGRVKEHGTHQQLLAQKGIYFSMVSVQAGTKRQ
cyclophilin A, sequence (P62937 whole entry, species assumed): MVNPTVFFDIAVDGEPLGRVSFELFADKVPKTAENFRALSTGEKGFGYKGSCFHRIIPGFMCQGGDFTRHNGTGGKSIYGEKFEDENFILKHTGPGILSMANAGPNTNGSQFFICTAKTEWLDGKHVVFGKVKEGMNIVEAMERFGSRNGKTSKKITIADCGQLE

SMILES: C/C=C/C[C@@H](C)[C@@H](O)[C@H]1C(=O)N[C@@H](CC)C(=O)N(C)[C@H](SCCN(C)C)C(=O)N(C)[C@@H](CC(C)(C)O)C(=O)N[C@@H](C(C)C)C(=O)N(C)[C@@H](CC(C)C)C(=O)N[C@@H](C)C(=O)N[C@H](C)C(=O)N(C)[C@@H](CC(C)C)C(=O)N(C)[C@@H](CC(C)C)C(=O)N(C)[C@@H](C(C)C)C(=O)N1C [WS635, (3 S,6 S,9S,12R,15 S,18 S,21 S,24S,27R,30S,33 S)-27-((2-(dimethylamino)ethyl)thio)-30-ethyl-33-((1R,2R,E)-1-hydroxy-2-methylhex-4-en-1-yl)-24-(2-hydroxy-2-methy 1propyl)-6,9,18-tri isobutyl-3,21-diisopropyl-1,4,7,10,12,15,19,25,28-nonamethyl-1,4,7,10,13,16,19,22,25,28,3 1-undecaazacyclotritriacontan-2,5,8,11,14,17,20,23,26,29,32-undecaone]
- anesthesia/surgery-induced increase of latency to eat food in the buried food test ([1]; 40 mg/kg IP 30 minutes before anesthesia/surgery, 18-month-old C57BL/J6 female mice): can attenuate
- anesthesia/surgery-induced changes in Buried Food Test, dose dependence ([1]; mice): dose-dependent manner
- anesthesia/surgery-induced decrease of duration in the novel arm in the Y maze test [2]: can attenuate
- anesthesia/surgery-induced decrease of number of entries in the novel arm in the Y maze test [2]: can attenuate
- anesthesia/surgery-induced change of freezing time in the open field test [3]: can attenuate
- anesthesia/surgery-induced decrease of time spent in the center of the open field [3]: can attenuate
- anesthesia/surgery-induced increase of latency to the center in the open field test [3]: can attenuate
- anesthesia/surgery-induced changes of delirium-like behaviors ([4]; 40 mg/kg): more effectively attenuate
- anesthesia/surgery-induced delirium-like behavior (composite Z score) ([4]; FIG. 15): able to attenuate
- anesthesia/surgery-induced cognitive impairment [5]: significantly attenuate
- suppression of hepatitis C virus (HCV) replication [6]: potent suppression
- inhibition of the peptidyl prolyl isomerase activity of cyclophilin A (cyclophilin A): nanomolar concentrations
- inhibition of calcineurin phosphatase activity (calcineurin): no detectable inhibition
- induction of cytochrome P450 1A2 (cytochrome P450 1A2): did not induce
- induction of cytochrome P450 2B6 (cytochrome P450 2B6): did not induce
- induction of cytochrome P450 3A4 (cytochrome P450 3A4): did not induce
- P-glycoprotein inhibition (P-glycoprotein): weak inhibitor
- P-glycoprotein substrate (P-glycoprotein): poor substrate
- inhibition of interleukin-2 secretion (stimulated Jurkat cells): weaker inhibitor of interleukin-2 secretion than cyclosporine
- inhibition of interleukin-2 secretion [7]: weaker inhibitor of interleukin-2 secretion than cyclosporine
- antiviral activity in combination with alpha interferon 2b (hepatitis C virus (HCV)): synergistic antiviral activity
- antiviral activity in combination with ribavirin (hepatitis C virus (HCV)): additive antiviral activity
- blood and liver concentrations of parent drug versus 50% effective dose in replicon assay ([8]; in vivo, po): exceeded the 50% effective dose
- oral bioavailability ([8]; multiple animal species): orally bioavailable
